From patent publication US20220073521A1, “PYRIMIDINE AND FIVE-MEMBERED NITROGEN HETEROCYCLE DERIVATIVE, PREPARATION METHOD THEREFOR, AND MEDICAL USES THEREOF” (Tuojie Biotech (Shanghai) Co., Ltd., priority 2018, published 2022)
Like-named read-outs stand apart in the source and are kept apart here.

Tests used:
[1] = target: T1, SHP2 wild-type phosphatase (recombinantly expressed full-length SHP2, aa 1-593) (Homo sapiens, UniProt Q06124); experiment: In vitro activity on SHP2 wild-type phosphatase (DiFMUP fluorescence); conditions: wild-type full-length SHP2, activated polypeptide IRS1 0.5 nM, DiFMUP 30 μM;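 further: enzyme preincubated at room temperature, then DiFMUP reaction run at room temperature and halted with SDS, potency derived from a logistic curve fit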
T1 sequence (Q06124 1-593): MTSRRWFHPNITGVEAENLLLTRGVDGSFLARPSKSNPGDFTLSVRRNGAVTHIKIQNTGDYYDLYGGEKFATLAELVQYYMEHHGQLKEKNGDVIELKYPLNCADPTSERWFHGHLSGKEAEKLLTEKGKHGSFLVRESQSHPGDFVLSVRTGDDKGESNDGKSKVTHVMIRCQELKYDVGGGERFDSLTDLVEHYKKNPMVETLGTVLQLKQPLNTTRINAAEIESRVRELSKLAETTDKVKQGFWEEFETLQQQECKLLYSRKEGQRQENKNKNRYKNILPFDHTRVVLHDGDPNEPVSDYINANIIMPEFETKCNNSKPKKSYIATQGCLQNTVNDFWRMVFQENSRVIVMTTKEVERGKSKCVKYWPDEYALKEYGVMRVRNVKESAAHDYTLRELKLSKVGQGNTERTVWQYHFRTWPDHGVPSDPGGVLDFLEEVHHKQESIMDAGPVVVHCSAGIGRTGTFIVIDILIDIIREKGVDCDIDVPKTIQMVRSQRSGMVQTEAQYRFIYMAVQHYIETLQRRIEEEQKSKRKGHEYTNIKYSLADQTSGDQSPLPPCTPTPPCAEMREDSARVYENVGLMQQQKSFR
Description: 0.2 nM recombinantly expressed full-length SHP2 (aa 1-593), 0.5 nM activated polypeptide IRS1 with double phosphorylation sites (sequence: H2N-LN(pY)IDLDLY(dPEG8)LST(pY)ASINFQK-amide) and a series of concentrations of the test compound (final concentrations were 1 μM, 0.3 μM, 0.1 μM, 0.03 μM, 0.01 μM, 0.003 μM, 0.001 μM, 0.0003 μM, 0.0001 μM, 0.00003 μM) were added to the phosphatase reaction solution (60 mM HEPES, pH 7.5 0.005% Brij-35, 75 mM NaCl, 75 mM KCl, 1 mM EDTA, 5 mM DTT). The reaction solution was shaked (350 rpm) at room temperature for 30 minutes. The reaction substrate DiFMUP with a final concentration of 30 μM was added, and the reaction solution was reacted at room temperature for 30 minutes. The phosphatase reaction was stopped by adding 5 μL of stop solution (60 mM HEPES, pH 7.5, 0.2% SDS). Ex358 nm/Em455 fluorescence value was read on the fluorescence plate reader MD SpectraMax.
The IC50 value of the compound was calculated using the four-parameter logit method. In the following formula, x represents the logarithmic form of the compound concentration, and F(x) represents the effect value (the inhibition rate of cell proliferation under the given concentration condition): F(x)=((A−D)/(1+((x/C)^B)))+D. A, B, C and D are four parameters. Different concentrations correspond to different inhibition rates, based on which an inverse curve was plotted, and the IC50 of the inhibitor was calculated from the curve. The IC50 of the compound was calculated with Primer premier 6.0.

p-ERK in KYSE-520 cells = experiment: Determination of p-ERK in KYSE-520 cells (HTRF); assay type: cell-based
Description: KYSE-520 cells (Nanjing Cobioer Biosciences CO., Ltd.) in the logarithmic growth phase were inoculated (30,000 cells/well) in 1640 medium containing 10% of FBS, and adhered in a 96-well plate overnight (5% CO2, 37° C.). […] The cell culture was stopped with cell lysate. The level of phosphorylated ERK in KYSE-520 cells was determined by a method based on homogeneous time-resolved fluorescence HTRF (Cisbio, 64ERKPEG). The fluorescence values (Ex337 nm/Em625/665 nm) were read on the compatible HTRF reader (MD SpectraMax).

KYSE-520 cells = experiment: KYSE-520 cell proliferation experiment (CellTiter-Glo, 7 days); assay type: cell-based
Description: The treated cell plate was incubated at 37° C., 5% CO2 for 7 days. CellTiter-Glo (Promega, G7573) was used to determine the number of viable cells in each well of the treated plate. 100 μL of the detection reagent was added to each well, and the plate was incubated at room temperature for 10 minutes. Then, the […] in each well was measured with Envision plate reader (PerkinElmer). […] The IC50 value was further calculated as the compound concentration required for 50% proliferation inhibition in the best-fit curve with […].

Row | SMILES | IC50 [1] [nM] | IC50 (p-ERK in KYSE-520 cells; Homo sapiens, KYSE-520, 2 h) [nM] | IC50 (p-ERK in KYSE-520 cells; 2 hours) [nM] | IC50 (KYSE-520 cells; Homo sapiens) [nM] | IC50 (KYSE-520 cells) [nM]
1 | Cc1nc(N2CCC3(CC2)CO[C@@H](C)[C@H]3N)n2ccnc2c1-c1cccc(Cl)c1Cl (single isomer, unassigned) [The atropisomer with a RT of 2.716 minutes in Examples 3 and 4] | 61.7 |  |  |  | 
2 | Cc1nc(N2CCC3(CCC[C@H]3N)CC2)n2ccnc2c1-c1ccnc(Cl)c1Cl [Example 5, (R)-8-(8-(2,3-Dichloropyridin-4-yl)-7-methylimidazo[1,2-c]pyrimidin-5-yl)-8-azaspiro[4.5]decan-1-amine] | 2.9 |  |  |  | 
3 | COc1nccc(-c2c(C)nc(N3CCC4(CCC[C@H]4N)CC3)n3ccnc23)c1Cl [Example 6, (R)-8-(8-(3-Chloro-2-methoxypyridin-4-yl)-7-methylimidazo[1,2-c]pyrimidin-5-yl)-8-azaspiro[4.5]decan-1-amine] | 26.9 |  |  |  | 
4 | Cc1nc(N2CCC3(CCC[C@H]3N)CC2)n2ccnc2c1-c1ccc(OC(F)F)cc1Cl [Example 7, (R)-8-(8-(2-Chloro-4-(difluoromethoxy)phenyl)-7-methylimidazo[1,2-c]pyrimidin-5-yl)-8-azaspiro[4.5]decan-1-amine] | 42.2 |  |  |  | 
5 | Cc1nc(N2CCC3(CC2)Cc2ccccc2[C@H]3N)n2ccnc2c1-c1cccc(Cl)c1Cl [Example 8, (S)-1′-(8-(2,3-Dichlorophenyl)-7-methylimidazo[1,2-c]pyrimidin-5-yl)-1,3-dihydrospiro[indene-2,4′-piperidin]-1-amine] | 5 | 370 |  | 151 | 
6 | CC1(N)CCN(c2ncc(Sc3ccnc(F)c3Cl)c3nncn23)CC1 [Example 19, 1-(8-((3-Chloro-2-fluoropyridin-4-yl)thio)-[1,2,4]triazolo[4,3-c]pyrimidin-5-yl)-4-methylpiperidin-4-amine] | 555 |  |  |  | 
7 | Nc1nc(N2CCC3(CCC[C@H]3N)CC2)n2ccnc2c1-c1cccc(Cl)c1Cl [Example 20, (R)-8-(7-Amino-8-(2,3-dichlorophenyl)imidazo[1,2-c]pyrimidin-5-yl)-8-azaspiro[4.5]decan-1-amine] | 2 | 85.9 |  | 178 | 
8 | Nc1nc(N2CCC3(CCC[C@H]3N)CC2)n2ccnc2c1Sc1ccnc(F)c1Cl [Example 22, (R)-8-(7-Amino-8-((3-chloro-2-fluoropyridin-4-yl)thio)imidazo[1,2-c]pyrimidin-5-yl)-8-azaspiro[4.5]decan-1-amine] | 2.1 | 24.5 |  | 102 | 
9 | Nc1nccc(Sc2c(N)nc(N3CCC4(CC3)Cc3ccccc3[C@H]4N)n3ccnc23)c1Cl [Example 29, (S)-1′-(7-Amino-8-((2-amino-3-chloropyridin-4-yl)thio)imidazo[1,2-c]pyrimidin-5-yl)-1,3-dihydrospiro[indene-2,4′-piperidin]-1-amine] | 1.3 |  |  | 14 | 
10 | Cc1nc(N2CCC3(CC2)Cc2ncccc2[C@H]3N)n2ccnc2c1-c1cccc(Cl)c1Cl [Example 33, (S)-1′-(8-(2,3-Dichlorophenyl)-7-methylimidazo[1,2-c]pyrimidin-5-yl)-5,7-dihydrospiro[cyclopenta[b]pyridine-6,4′-piperidin]-5-amine] | 1.2 |  |  |  | 
11 | CNc1ncccc1Sc1cnc(N2CCC3(CC2)Cc2ncccc2[C@H]3N)n2ccnc12 [Example 38, (S)-1′-(8-((2-(Methylamino)pyridin-3-yl)thio)imidazo[1,2-c]pyrimidin-5-yl)-5,7-dihydrospiro[cyclopenta[b]pyridine-6,4′-piperidin]-5-amine] | 10.9 |  |  |  | 
12 | Cc1nc(N2CCC3(CC2)CO[C@@H](C)[C@H]3N)c(CO)nc1-c1cccc(Cl)c1Cl [RMC4550, reference compound] |  |  | 34.6 |  | 201

Further lines, with some results ahead:

Row | IC50 [1] [nM] | IC50 (p-ERK in KYSE-520 cells; Homo sapiens, KYSE-520, 2 h) [nM] | IC50 (p-ERK in KYSE-520 cells; 2 hours) [nM] | SMILES | IC50 (KYSE-520 cells; Homo sapiens) [nM] | IC50 (KYSE-520 cells) [nM]
13 | 111 |  |  | Cc1nc(N2CCC3(CC2)CO[C@@H](C)[C@H]3N)n2ccnc2c1-c1c(F)cccc1Cl [Example 10, (3S,4S)-8-(8-(2-Chloro-6-fluorophenyl)-7-methylimidazo[1,2-c]pyrimidin-5-yl)-3-methyl-2-oxa-8-azaspiro[4.5]decan-4-amine] |  | 
14 | 41.1 |  |  | Cc1nc(N2CCC3(CC2)CO[C@@H](C)[C@H]3N)n2ccnc2c1-c1c(F)ccc(Cl)c1Cl [Example 11, (3S,4S)-8-(8-(2,3-Dichloro-6-fluorophenyl)-7-methylimidazo[1,2-c]pyrimidin-5-yl)-3-methyl-2-oxa-8-azaspiro[4.5]decan-4-amine] |  | 
15 |  | 59.2 |  | Cc1nc(N2CCC3(CC2)CO[C@@H](C)[C@H]3N)n2ccnc2c1-c1cccc(Cl)c1Br [Example 12, (3S,4S)-8-(8-(2-Bromo-3-chlorophenyl)-7-methylimidazo[1,2-c]pyrimidin-5-yl)-3-methyl-2-oxa-8-azaspiro[4.5]decan-4-amine] | 346 | 
16 | 818 |  |  | C[C@@H]1OCC2(CCN(c3nc(C(F)(F)F)c(Sc4cccnc4C(F)(F)F)c4nccn34)CC2)[C@@H]1N [Example 13, (3S,4S)-3-Methyl-8-(7-(trifluoromethyl)-8-((2-(trifluoromethyl)pyridin-3-yl)thio)imidazo[1,2-c]pyrimidin-5-yl)-2-oxa-8-azaspiro[4.5]decan-4-amine] |  | 
17 | 232 |  |  | CC1(N)CCN(c2ncc(Sc3ccnc(F)c3Cl)c3nccn23)CC1 [Example 14, 1-(8-((3-Chloro-2-fluoropyridin-4-yl)thio)imidazo[1,2-c]pyrimidin-5-yl)-4-methylpiperidin-4-amine] |  | 
18 | 5.6 | 197 |  | N[C@@H]1CCCC12CCN(c1ncc(Sc3ccnc(F)c3Cl)c3nccn13)CC2 [Example 15, (R)-8-(8-((3-Chloro-2-fluoropyridin-4-yl)thio)imidazo[1,2-c]pyrimidin-5-yl)-8-azaspiro[4.5]decan-1-amine] | 312 | 
19 | 6.8 | 166 |  | N[C@@H]1CCCC12CCN(c1ncc(Sc3cccnc3C(F)(F)F)c3nccn13)CC2 [Example 16, (R)-8-(8-((2-(Trifluoromethyl)pyridin-3-yl)thio)imidazo[1,2-c]pyrimidin-5-yl)-8-azaspiro[4.5]decan-1-amine] | 548 | 
20 | 8.6 |  |  | C[C@@H]1OCC2(CCN(c3ncc(Sc4ccncc4C(F)(F)F)c4nccn34)CC2)[C@@H]1N [Example 18, (3S,4S)-3-Methyl-8-(8-((3-(trifluoromethyl)pyridin-4-yl)thio)imidazo[1,2-c]pyrimidin-5-yl)-2-oxa-8-azaspiro[4.5]decan-4-amine] |  | 
21 | 3.8 | 26.6 |  | C[C@@H]1OCC2(CCN(c3nc(N)c(-c4cccc(Cl)c4Cl)c4nccn34)CC2)[C@@H]1N [Example 21, (3S,4S)-8-(7-Amino-8-(2,3-dichlorophenyl)imidazo[1,2-c]pyrimidin-5-yl)-3-methyl-2-oxa-8-azaspiro[4.5]decan-4-amine] | 111 | 
22 | 2.3 | 23.2 |  | Nc1nc(N2CCC3(CCC[C@H]3N)CC2)n2ccnc2c1Sc1cccnc1C(F)(F)F [Example 23, (R)-8-(7-Amino-8-((2-(trifluoromethyl)pyridin-3-yl)thio)imidazo[1,2-c]pyrimidin-5-yl)-8-azaspiro[4.5]decan-1-amine] | 51.6 | 
23 | 5.2 | 29.1 |  | Cc1nccc(Sc2c(N)nc(N3CCC4(CC3)CO[C@@H](C)[C@H]4N)n3ccnc23)c1Cl [Example 25, (3S,4S)-8-(7-Amino-8-((3-chloro-2-methylpyridin-4-yl)thio)imidazo[1,2-c]pyrimidin-5-yl)-3-methyl-2-oxa-8-azaspiro[4.5]decan-4-amine] |  | 
24 | 2.7 | 11.6 |  | C[C@@H]1OCC2(CCN(c3nc(N)c(Sc4ccnc(F)c4Cl)c4nccn34)CC2)[C@@H]1N [Example 26, (3S,4S)-8-(7-Amino-8-((3-chloro-2-fluoropyridin-4-yl)thio)imidazo[1,2-c]pyrimidin-5-yl)-3-methyl-2-oxa-8-azaspiro[4.5]decan-4-amine] | 62 | 
25 | 1.5 |  |  | COc1nccc(Sc2cnc(N3CCC4(CC3)Cc3ncccc3[C@H]4N)n3ccnc23)c1Cl [Example 35, (S)-1′-(8-((3-Chloro-2-methoxypyridin-4-yl)thio)imidazo[1,2-c]pyrimidin-5-yl)-5,7-dihydrospiro[cyclopenta[b]pyridine-6,4′-piperidin]-5-amine] |  | 
